The series deals with aqueous kinetic solubility, PBS pH 7.4, LC-UV/MS. As to the kind of experiment: qHTS for Activators of Human alpha-Glucosidase as a Potential Chaperone Treatment of Pompe Disease: Aqueous Solubility. The conditions noted are these: stronger effect = higher value. The text has this: Alpha-glucosidase is responsible for hydrolysis of terminal, non-reducing 1,4-linked alpha-D-glucose residues with release of alpha-D-glucose. It is a lysosomal hydrolase that is required for the degradation of a small percentage (1-3%) of cellular glycogen in human. Deficiency of this enzyme results in glycogen-storage disease type II (GSDII), also referred to as Pompe disease, an autosomal recessive disorder. Structurally normal glycogen is accumulated in lysosomes and cytoplasm in affected patients, primarily in muscle tissues. Excessive glycogen storage within lysosomes may interrupt normal functioning of other organelles and leads to cellular injury. In turn, this leads to enlargement and dysfunction of the entire organ involved (eg, cardiomyopathy and muscle weakness). It has reported that the improper folding and trafficking of alpha-glucosidase resulting from the genetic mutations may account for a significant number of Pompe patients. […]
1. […] Concentration of the supernatant was determined by LC-UV or LC-MS/MS […]

Values after ≈ are worked out from the molar mass of the structure shown.

On to `CCCN1CNc2c(c(=O)[nH]c(=S)n2Cc2ccc(OC)c(OC)c2)C1`, for which the solubility was 289 µM (≈ 109 µg/mL).
